Like-named read-outs stand apart in the source and are kept apart here. Positions of bridges follow the written chain, without caps; N, C: chain ends. Non-standard residues stand in square brackets, D forms with d. Residues, ends and D or L forms follow the SMILES beside them. S5 = C=CCCC[C@](C)(N)C(=O)O
Assays:
[1] = system: HIV-1 CA; conditions: 25°C, pH 7.3, ideal single-species model, CA alone 41,213
Experimental: In the second set of experiments, the possible effect of NYAD-203 on dimer stability was analyzed by sedimentation equilibrium.
Sedimentation equilibrium experiments were performed using a ProteomeLab XL-A analytical ultracentrifuge using 6-channel centerpieces in an An-60Ti rotor at 25°C. Protein samples were dialyzed into 50 mM sodium phosphate buffer (pH 7.3). […] Radial scans were measured at 280 nm. The data were fitted to an ideal single-species model as well as a rapid monomer-dimer equilibrium using the Beckman XL-A/XL-I Data Analysis Software (Version 6.03).

[2] = system: monomeric CTD mutant (W184A/M185A); assay: Binding to monomeric CTD mutant; set-up: species or system HIV-1; conditions: data not shown
[3] = NMR of isolated peptide (self-association); format: physicochemical; conditions: 20 mM phosphate buffer pH 7.0, 288 K
[4] = system: wild type CTD (wtCTD) of HIV-1 CA; assay: ITC dilution of CTD dimers in presence of peptide; format: binding; conditions: for Kdiss (apparent CTD dimer dissociation constant): ITC dilution, 30°C; for 200 μM CTD (fm), estimated fraction of CTD occurring as monomers: calculated from monomer-dimer equilibrium expressions
Experimental: The effect of the dimer interface peptide, NYAD-203, a soluble analog of NYAD-201, on dimer dissociation was first examined by isothermal titration calorimetry (ITC). Dilution of CTD by sequential ITC injections into buffer, pH 7.3, 30°;C gave a series of endothermic heat pulses (Figure 4) consistent with dissociation of protein oligomers modeled as dimers, with dimer dissociation constant (Kdiss) ~15 μM and dissociation enthalpy (ΔHdiss) of 10.7 kcal mole^-1. […] For such a mechanism, the apparent dimer dissociation constant should depend on the free peptide (inhibitor) concentration ([I]) and binding affinity (KI) as follows: [drawing 1]
or an approximate form that might be valid at high inhibitor concentrations: [drawing 2]
where Ci is the total peptide inhibitor concentration in the mixture. This analysis is, however, further complicated by apparent self-association of the peptide (see NMR section) that reduces the availability of free monomer (lower [I]) at higher concentrations and thus leads to underestimation of peptide binding affinities and a concentration dependence of apparent Ki. However, by use of the above equations and extrapolation to low concentrations, we obtain a value of Ki = 40 (±5) μM for the binding of stapled peptide (NYAD-203) monomer to CTD under these conditions.
The influence of the peptides on dimer dissociation of wild type CTD (wtCTD) was investigated by ITC (MicroCal VP-ITC) following established protocols. Proteins were exhaustively dialyzed against the 25 mM sodium phosphate buffer (pH 7.3) prior to experimental measurements. In a typical experiment, the ITC injection syringe was loaded with 250 μM protein, dissolved in dialysis buffer or dialysis buffer/peptide mixture and the calorimetric cell (ca. 1.4 ml active volume) initially contained only the identical buffer mixture. Typically titrations consisted of 28 injections of 10 μl, with 240-s equilibration between injections. The thermodynamic parameters were obtained and data were analyzed using MicroCal Origin 7.0 software, using an updated and corrected (June 2008) version of the dissociation analysis procedure, validated by comparison with earlier analysis methods.

[5] = system: GFP-Vpr-labeled HIV-1 virions in SupT1 cells; assay: Virus entry, GFP-Vpr-labeled HIV-1 virions, FACS; format: cell-based; conditions: 111 nM

## CSCC[C@@H]1NC(=O)[C@H](Cc2c[nH]c3ccccc23)NC(=O)[C@@](C)(NC(=O)[C@H](CCCCN)NC(=O)[C@@H](NC(=O)[C@H](C)NC(=O)[C@H](CCC(N)=O)NC(=O)[C@H](C)N)C(C)C)CCC/C=C\CCC[C@@](C)(C(=O)N[C@H](C(=O)N[C@@H](CC(C)C)C(=O)N[C@@H](CC(C)C)C(=O)N[C@H](C(=O)N[C@@H](C)C(=O)N[C@@H](CCCCN)C(=O)N[C@@H](CCCCN)C(=O)N[C@@H](CCCCN)C(=O)O)C(C)C)[C@@H](C)O)NC(=O)[C@H]([C@@H](C)O)NC1=O [NYAD-203] (H-AQAVK[S5]WMT[S5]TLLVAKKK-OH; staple (Z) 6-10; N-terminus and C-terminus assumed)
[1]; CA:NYAD-203 = 1:1 (30 μM CA, 30 μM peptide)
  apparent molecular weight of CA: 30,343 Daltons
[1]; CA:NYAD-203 = 1:3 (30 μM CA, 90 μM peptide)
  apparent molecular weight of CA: 27,338 Daltons
[2]
  affinity for monomeric CTD mutant (W184A/M185A): no measurable affinity
[3]
  self-association of isolated peptide: self-associates to form polymeric species
[4]; CI 50 μM NYAD-203, 25 mM sodium phosphate pH 7.3, 250 μM CTD in syringe
  Kdiss (apparent CTD dimer dissociation constant): 31.2 (±6.6) μM
[4]; CI 50 μM NYAD-203
  200 μM CTD (fm), estimated fraction of CTD occurring as monomers: 24%
[4]; CI 200 μM NYAD-203, pH 7.3
  Kdiss (apparent CTD dimer dissociation constant): 33.2 (±3.9) μM
[4]; CI 200 μM NYAD-203
  200 μM CTD (fm), estimated fraction of CTD occurring as monomers: 25%
[4]; CI 350 μM NYAD-203, pH 7.3
  Kdiss (apparent CTD dimer dissociation constant): 40.5 (±6.2) μM
[4]; CI 350 μM NYAD-203
  200 μM CTD (fm), estimated fraction of CTD occurring as monomers: 27%

## IRQGPKEPFRDYVDR [NYAD-401]
[4]; unstapled control peptide
  ITC heat effect (binding): no apparent heat effect

## enfuvirtide [T-20]
[5]
  inhibition of viral entry: substantially inhibited viral entry
